Laboratory results as given in patent publication US9399037B2, “Triazinone compounds for treating diseases resulting from infestation with parasitic protozoans” (Bayer Intellectual Property GmbH, priority 1999, dated 2016).
“And” between values parts separate entries of the source, which are not always exact repeats. Equal values may be shown once. Read-outs that look alike come from different tables or passages of the source.

What was measured:
Neospora caninum [1] = conditions: dogs; treatment with sulfadiazine and clindamycin together; cited from earlier work
Neospora caninum [2] = conditions: experimentally infected mice, administered via the drinking water, cited from earlier work
Neospora caninum [3] = test: Testing substances on infected Neospora caninum cell cultures (VERO cell monolayer, microscopical assessment); assay type: cell-based; set-up: key: 0 = no effect; 1 = some effect; 2 = full action; T = cytotoxic; conditions: 4 days after beginning of treatment, 5 days post-infection
Experimental: Neospora caninum is an obligatory intracellular parasite. VERO cells (African green monkey kidney cells, ATCC No.: CCL 81 Vero) were used as an aid to cause the parasite to reproduce under conditions capable of standardization and definition. Vero cells were grown in the following medium: 87% […] (ICN, 12-602-54) 10% FCS (fetal calf serum, ICN, 29-101-49) 1% 200 mM L-glutamine (ICN, 15-801-13) 1% sodium bicarbonate (ICN, 16-883-49) 1% penicillin/streptomycin (ICN, 16-700-49). Noninfected cultures were maintained and passaged in 25 cm^2 (Falcon, B 769031) and 75 cm^2 (Falcon, B 769051) tissue culture flasks. Vero cells were grown at 37° C. in a 5% CO2 atmosphere in a CO2 incubator (Heraeus) until a cell monolayer was obtained.
The following Neospora caninum isolates were used for the infection of cell cultures: NC-1 (canine isolate DUBEY (1988) and NC Swe B-1/9th passage (bovine isolate; National Veterinary Institute Uppsala, Sweden). The infection materials used were infected cell cultures from the nitrogen storage (see above) or purified tachyzoites of infected cultures (see below).
Neospora caninum was isolated from infected VERO or ED monolayers under sterile conditions. First, infected cell cultures were detached from the flask bottom using a spatula (Tec No Mara, 3010) and, using a 23-gauge cannula (Luer 23 Gx1, 0.6×25 mm) drawn into a 10 ml disposable syringe. During this procedure, host cells and tissue cysts contained therein were destroyed mechanically. The cell suspension was subsequently centrifuged for 7 minutes at 1 500 rpm (Varifuge 3.0, Heraeus), the supernatant was discarded, and the sample pellet was resuspended in precisely 2.5 ml of physiological phosphate buffer (PBS: 1 mM PO4, 12 mM NaCl, 0.87 mM KCL, pH 7.4). The next isolation step was performed using a Sephadex column (PD-10™/Sephadex G-25 M, Pharmacia Biotech, 17-0851). The column was first equilibrated with 25 ml of PBS, the sample volume was applied in 2.5 ml of PBS, and elution was then effected with 5 ml of PBS. […]

Neospora caninum [4] = test: Anti-N. caninum total IgG in the serum by ELISA, prophylactically treated infected mice; assay type: in vivo
Experimental: (§1) Female Wt C57BL/6-mice, age at the time of treatment: 7½ weeks.
(§2) Neospora caninum tachyzoites were passaged through VERO cells, and isolated by column chromatography, and aliquots with concentrations of 2×10^6 parasites/100 μl were prepared in sterile PBS.
(§3) Pure toltrazuril active compound was made up as a stock solution with 50 mg/10 ml H2O+100 μl Cremophor. 0.5 mg of pure active compound were present Der application in 0.1 ml of this solution. In a mouse of 20 g, this corresponds to a use concentration of 25 mg/kg. The substances were administered perorally by gavage on 6 successive days, which corresponds to a total uptake of […].
(§4) Toltrazuril 2.5% formulated solution (100 ml solution contain: 2.50 g toltrazuril, 30.00 g triethanolamine, 80.70 g polyethylene glycol; the components are simply mixed): 6.25 ml of the 2.5% solution were diluted in 250 ml of water and administered to the mice on 6 successive days via the drinking water.
(§5) Four hours after the start of the prophylactic treatment, each mouse was infected with 2×10^6 parasite stages/100 μl sterile PBS.
(§6) 14 days post-infection, the test mice were sacrificed using CO2. They were numbered randomly to maintain a random sequence during evaluation (blind evaluation). To obtain serum, blood was taken from the myocardium. The brain was dissected carefully, and one half was stored at −80° C. for the PCR analysis. The remainder was fixed in 4% paraformaldehyde/PBS for immunohistological studies (IFAT).
Anti-N. caninum total immunoglobulin G (IgG) was determined by ELISA following the method of Eperon et al., 1999, Parasite Immunology 21:225-236. Treated groups were compared with an uninfected and an infected control group. The positive control mouse was inoculated with a crude extract of N. caninum tachyzoites and subsequently infected with 10^6 N. caninum stages. The parasite-specific IgG values were particularly high in this mouse.

Neospora caninum [5] = test: Neospora caninum-specific PCR on brain DNA of infected mice; assay type: in vivo; conditions: prophylactic treatment, pure active compound 25 mg/kg/day p.o.
Experimental: as §1, §2, §3, §4, §5
as §6, with “The remainder was fixed in 4% paraformaldehyde/PBS for immunohistological studies (IFAT).” left out

Neospora caninum [6] = test: Immunofluorescence test (IFAT) on brain sections of infected mice; assay type: in vivo; set-up: key: Score (−)=no tachyzoites; Score (+)=less than 10 tachyzoites; Score (++)=between 10 and 200 tachyzoites; Score (+++)=more than 200 parasites; conditions: brain sections of individual mice; 25 mg/kg/day p.o. on 6 successive days; day 14 p.i.
Experimental: as §1, §2, §3, §4, §5
14 days post-infection, the test mice were sacrificed using CO2. They were numbered randomly to maintain a random sequence during evaluation (blind evaluation). […]
The entire sections were studied for the assessment. Any stages of the parasite present were counted, and the following scores were used: […]

Row | Compound | success of treatment (Neospora caninum [1]) | effectiveness of treatment (Neospora caninum [2]; later start of the treatment) | effectiveness of treatment (Neospora caninum [2]; start prior to infection, clinical symptoms prevented without parasitological recovery) | Efficacy against Neospora caninum in VERO cells (assessment of monolayer) (Neospora caninum [3]; 10 ppm) | Efficacy against Neospora caninum in VERO cells (assessment of monolayer) (Neospora caninum [3]; 25 ppm) | Efficacy against Neospora caninum in VERO cells (assessment of monolayer) (Neospora caninum [3]; 50 ppm) | OD mean (anti Neospora IgG in the serum) (Neospora caninum [4]; group mean, 7 mice, 25 mg/kg/day p.o. on 6 successive days, day 14 p.i.) | OD (anti Neospora IgG in the serum) (Neospora caninum [4]; individual C57BL/6 mice, 25 mg/kg/day p.o. on 6 successive days from 4 h before infection, day 14 p.i., 25 mg/kg/day) | concentration of Neospora caninum-specific IgG antibodies compared with infected and untreated control groups (Neospora caninum [4]; mice, pure active compound 25 mg/kg/day p.o.) | mice PCR-negative in the group (Neospora caninum [5]) | IFAT (Neospora caninum [6])
1 | Nc1ccc(S(=O)(=O)Nc2ncccn2)cc1 [sulfadiazine] | only has a chance of success when it starts very early | without success | only effective when the treatment was started prophylactically |  |  |  |  |  |  |  | 
2 | Cc1cc(-n2c(=O)[nH]c(=O)n(C)c2=O)ccc1Oc1ccc(SC(F)(F)F)cc1 [Toltrazuril, toltrazuril] |  |  |  | 1 | 2 | 2 | 0.1689 | 0.338 and 0.271 and 0.056 and 0.066 and 0.18 and 0.103 and 0.168 | reduced concentration | 4/7 | −
